Assay results published in patent US20210219550A1, “PEST CONTROL COMPOSITIONS AND USES THEREOF” (Flagship Pioneering Innovations VI, LLC, priority 2018, published 2021).

What was measured:
E. coli = assay: Treatment of bacteria and yeast with DOX-loaded grapefruit PMPs (kinetic OD600, relative OD); conditions: effective DOX 5-100 μM
Method: (§1) Bacteria and yeast strains were maintained as indicated by the supplier: E. coli(ATCC, #25922) was grown on Trypticase Soy Agar/broth at 37° C., Pseudomonas aeruginosa (ATCC) was grown on Tryptic soy Agar/broth with […] rifampicin at 37° C., Pseudomonas syringae pv. tomato str. DC3000 bacteria (ATCC, #BAA-871) was grown on King's Medium B agar with […] rifampicin at 30° C., and Saccharomyces cerevisiae (ATCC, #9763) was grown on yeast extract peptone dextrose broth (YPD) and maintained at 30° C. Prior to treatment, fresh one day cultures were grown overnight, the OD (600 nm) was adjusted to 0.1 OD with medium prior to use, and bacteria/yeast were transferred to a 96 well plate for treatment (duplicate samples, 100 μl/well). […] Plates were covered with aluminum foil, and incubated at 37° C. (E. coli, P. aeruginosa), or 30° C. (S. cerevisiae, P. syringae) and agitated at 220 rpm.
(§2) A kinetic Absorbance measurement at 600 nm was performed on a SpectraMax® spectrophotometer to monitor the OD of the cultures at t=0 h, t=1 h, t=2 h, t=3 h, t=4.5 h, t=16 h (E. coli, P. aeruginosa) or t=0.5 h, t=1.5 h, t=2.5 h, t=3.5 h, t=4 h, t=16 h (P. syringae, S. cerevisiae).
(§3) To compare the cytotoxic effect of PMP-DOX treatment on different bacterial and yeast strains, within each treatment group the relative OD was determined as compared to the untreated control (set to 100%).

Pseudomonas aeruginosa = assay: as above; conditions: P. aeruginosa, effective DOX 5-100 μM
Method: as §1, §2, §3

[1] = tested on: Pseudomonas syringae pv. tomato str. DC3000; assay: as above; conditions: P. syringae, effective DOX 5-100 μM
Method: as §1, §2, §3

Saccharomyces cerevisiae = assay: as above; conditions: S. cerevisiae, effective DOX 5-100 μM
Method: as §1, §2, §3

[2] = tested on: Arabidopsis thaliana seedlings; assay: Treatment of Arabidopsis thaliana seedlings with doxorubicin-loaded PMPs (cytotoxicity: leaf vigor, leaf color, root length); format: in vivo; conditions: 7-day old seedlings, 24 hours treatment, 3 further days; doses tested 25, 50, 100 μM
Method: Wild type Arabidopsis thaliana Col-0 seeds were obtained from the ABRC, surface sterilized with 50% bleach, stratified for 1-3 d at 4° C., and germinated on half-strength (0.5×) Murashige and Skoog (MS) medium supplemented with 0.5% sucrose, 2.5 mM MES, pH 5.6, containing 0.8% agar, with a photoperiod of 16 h light 23° C./8 h dark 21° C.
To test whether PMPs can deliver a small molecule cargo in planta, 7-day old Arabidopsis thaliana seedlings were transferred to 0.5× liquid MS medium in a 24 well plate (1 seedling per well), and treated with free DOX or DOX-loaded PMPs with an encapsulated DOX dose of 0 (negative control), 25 μM, 50 μM and 100 μM. The plate was covered with aluminum foil and incubated for 24 hours. DOX-containing medium was removed, the seedlings were washed two times with ½X MS medium, and fresh medium was added. Seedlings were incubated for an additional 3 days under a normal photoperiod (16 h light 23° C./8 h dark 21° C.). Next, seedlings were removed from the plate and towel-dried for imaging and cytotoxicity was assessed by analyzing leaf vigor, leaf color and root length. Cytotoxicity is defined by shortening of the roots, loss of leaf vigor, and leaf discoloration (yellow instead of green) when compared to an untreated seedling control.

COc1cccc2c1C(=O)c1c(O)c3c(c(O)c1C2=O)C[C@@](O)(C(=O)CO)C[C@@H]3O[C@H]1C[C@H](N)[C@H](O)[C@H](C)O1 [free doxorubicin, doxorubicin]
cytotoxic effect (relative OD vs untreated control), in words (E. coli): cytotoxicity is induced earlier than with PMP-DOX delivery | cytotoxic effect (relative OD vs untreated control), in words (Pseudomonas aeruginosa): cytotoxicity is induced earlier than with PMP-DOX delivery | cytotoxic effect (relative OD vs untreated control), in words [1]: cytotoxicity is induced earlier than with PMP-DOX delivery | cytotoxic effect (relative OD vs untreated control), in words (Saccharomyces cerevisiae): cytotoxicity is induced earlier than with PMP-DOX delivery | DOX dose at which cytotoxicity was shown [2]: 100 µM
